Data reported in PubChem BioAssay AID328 (DTP/NCI, 2004).
Where “and” joins values, the source holds several entries; their conditions need not be identical. Equal entries are not always repeated. Toxic doses and inconclusive results are not listed.

System: BDF1 mice, P388 leukemia ip, median survival T/C
Assay: NCI In Vivo Anticancer Drug Screen. Data for tumor model P388 Leukemia (intraperitoneal) in B6D2F1 (BDF1) mice
Conditions: endpoint: median survival time, higher = longer survival
Summary of the method: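 Mice carrying the transplantable tumour receive compound or vehicle. Survival is followed in each arm, and the treated measure is divided by the vehicle measure.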

[1] = dose: 100.0 mg/kg/injection, schedule: Q04DX003 (ip), vehicle: water
[2] = dose: 200.0 mg/kg/injection, schedule: Q04DX003 (ip), vehicle: water
[3] = dose: 400.0 mg/kg/injection, schedule: Q04DX003 (ip), vehicle: water
[4] = dose: 100.0 mg/kg/injection, schedule: Q04DX003 (ip), vehicle: saline with Tween-80
[5] = dose: 200.0 mg/kg/injection, schedule: Q04DX003 (ip), vehicle: saline with Tween-80
[6] = dose: 400.0 mg/kg/injection, schedule: Q04DX003 (ip), vehicle: saline with Tween-80
[7] = dose: 50.0 mg/kg/injection, schedule: Q01DX009 (ip), vehicle: saline with Tween-80
[8] = dose: 100.0 mg/kg/injection, schedule: Q01DX009 (ip), vehicle: saline with Tween-80
[9] = dose: 200.0 mg/kg/injection, schedule: Q01DX009 (ip), vehicle: saline with Tween-80
[10] = dose: 200.0 mg/kg/injection, schedule: Q04DX003 (ip), vehicle: Klucel (hydroxypropylcellulose) (HPC)
[11] = dose: 100.0 mg/kg/injection, schedule: Q01DX009 (ip), vehicle: saline
[12] = dose: 100.0 mg/kg/injection, schedule: Q04DX003 (ip), vehicle: saline
[13] = dose: 200.0 mg/kg/injection, schedule: Q04DX003 (ip), vehicle: saline
[14] = dose: 25.0 mg/kg/injection, schedule: Q04DX003 (ip), vehicle: saline with Tween-80
[15] = dose: 50.0 mg/kg/injection, schedule: Q04DX003 (ip), vehicle: saline with Tween-80
[16] = dose: 200.0 mg/kg/injection, schedule: Q01DX009 (ip), vehicle: saline
[17] = dose: 400.0 mg/kg/injection, schedule: Q01DX009 (ip), vehicle: saline
[18] = dose: 400.0 mg/kg/injection, schedule: Q04DX003 (ip), vehicle: saline

Brc1cnc[nH]1
T/C (dose: 25.0 mg/kg/injection, schedule: Q01DX009 (ip), vehicle: water): 103 % of control
T/C (dose: 25.0 mg/kg/injection, schedule: Q04DX003 (ip), vehicle: water): 106 % of control
T/C (dose: 50.0 mg/kg/injection, schedule: Q01DX009 (ip), vehicle: water): 91 % of control
T/C (dose: 50.0 mg/kg/injection, schedule: Q04DX003 (ip), vehicle: water): 94 % of control and 106 % of control
T/C (dose: 100.0 mg/kg/injection, schedule: Q01DX009 (ip), vehicle: water): 87 % of control
T/C [1]: 93 % of control (2×) and 110 % of control
T/C (dose: 200.0 mg/kg/injection, schedule: Q01DX009 (ip), vehicle: water): 100 % of control
T/C [2]: 89 % of control and 97 % of control
T/C (dose: 300.0 mg/kg/injection, schedule: Q04DX003 (ip), vehicle: water): 98 % of control
T/C [3]: 94 % of control and 99 % of control and 103 % of control

O=C(O)C1CCC=CCC1
T/C (dose: 50.0 mg/kg/injection, schedule: Q04DX003 (ip), vehicle: other): 100 % of control
T/C (dose: 100.0 mg/kg/injection, schedule: Q04DX003 (ip), vehicle: other): 100 % of control
T/C (dose: 200.0 mg/kg/injection, schedule: Q04DX003 (ip), vehicle: other): 109 % of control

Nc1nc(F)nc2nc[nH]c12
T/C (dose: 10.0 mg/kg/injection, schedule: Q01DX009 (ip), vehicle: Klucel (hydroxypropylcellulose) (HPC)): 121 % of control
T/C (dose: 20.0 mg/kg/injection, schedule: Q01DX009 (ip), vehicle: Klucel (hydroxypropylcellulose) (HPC)): 121 % of control

O=C(Nc1ccc(NC(=O)Nc2cccc(C3=NCCN3)c2)cc1)Nc1cccc(C2=NCCN2)c1
T/C (dose: 60.0 mg/kg/injection, schedule: Q01DX010 (ip), vehicle: saline): 165 % of control and 190 % of control
T/C (dose: 120.0 mg/kg/injection, schedule: Q01DX010 (ip), vehicle: saline): 160 % of control and 175 % of control
T/C (dose: 240.0 mg/kg/injection, schedule: Q01DX010 (ip), vehicle: saline): 175 % of control and 190 % of control
T/C (dose: 480.0 mg/kg/injection, schedule: Q01DX010 (ip), vehicle: saline): 250 % of control and 300 % of control

CC1OC(n2ccc(NC(=O)c3ccc(NC(=O)C(C)(N)CO)cc3)nc2=O)CC(O)C1OC1OC(C)C(N(C)C)C(O)C1O (stereo not drawn)
T/C (dose: 2.5 mg/kg/injection, schedule: Q01DX009 (ip), vehicle: saline): 106 % of control
T/C (dose: 5.0 mg/kg/injection, schedule: Q01DX009 (ip), vehicle: saline): 103 % of control
T/C (dose: 10.0 mg/kg/injection, schedule: Q01DX009 (ip), vehicle: saline): 111 % of control

CCOC1CCC(C(C)=O)C(C#N)(C#N)C1(C#N)C#N (stereo not drawn)
T/C (dose: 6.25 mg/kg/injection, schedule: Q01DX001 (ip), vehicle: saline with Tween-80): 108 % of control
T/C (dose: 12.5 mg/kg/injection, schedule: Q01DX001 (ip), vehicle: saline with Tween-80): 123 % of control
T/C (dose: 25.0 mg/kg/injection, schedule: Q01DX001 (ip), vehicle: saline with Tween-80): 110 % of control and 119 % of control
T/C (dose: 50.0 mg/kg/injection, schedule: Q01DX001 (ip), vehicle: saline with Tween-80): 124 % of control

Clc1ccc2nnnn2n1
T/C (dose: 16.25 mg/kg/injection, schedule: Q01DX009 (ip), vehicle: saline with Tween-80): 99 % of control
T/C (dose: 32.5 mg/kg/injection, schedule: Q01DX009 (ip), vehicle: saline with Tween-80): 101 % of control
T/C (dose: 40.0 mg/kg/injection, schedule: Q01DX009 (ip), vehicle: saline with Tween-80): 97 % of control
T/C (dose: 80.0 mg/kg/injection, schedule: Q01DX009 (ip), vehicle: saline with Tween-80): 111 % of control
T/C (dose: 130.0 mg/kg/injection, schedule: Q01DX009 (ip), vehicle: saline with Tween-80): 151 % of control

CCOC(=O)N1Cc2cc3cc(OC)c(OC)cc3nc2C1
T/C [4]: 105 % of control
T/C [5]: 90 % of control
T/C [6]: 105 % of control

CN(C)/N=C1\C(=O)N(CCCl)c2cc(Cl)c(Cl)cc21
T/C [7]: 97 % of control
T/C [8]: 99 % of control
T/C [9]: 90 % of control

Cc1ccc(NC(=O)NC2CCCCC2)cc1
T/C [8]: 91 % of control
T/C [9]: 88 % of control
T/C (dose: 400.0 mg/kg/injection, schedule: Q01DX009 (ip), vehicle: saline with Tween-80): 100 % of control

O=[N+]([O-])c1cc([N+](=O)[O-])c(Cl)cc1Cl
T/C (dose: 3.13 mg/kg/injection, schedule: Q01DX009 (ip), vehicle: Klucel (hydroxypropylcellulose) (HPC)): 104 % of control
T/C (dose: 6.25 mg/kg/injection, schedule: Q01DX009 (ip), vehicle: Klucel (hydroxypropylcellulose) (HPC)): 104 % of control
T/C (dose: 12.5 mg/kg/injection, schedule: Q01DX009 (ip), vehicle: Klucel (hydroxypropylcellulose) (HPC)): 109 % of control
T/C (dose: 50.0 mg/kg/injection, schedule: Q04DX003 (ip), vehicle: Klucel (hydroxypropylcellulose) (HPC)): 103 % of control
T/C [10]: 92 % of control

CCCCCCCCCCCCCCCC[N+]1(C)CCN(SN2CC[N+](C)(CCCCCCCCCCCCCCCC)CC2)CC1
T/C (dose: 50.0 mg/kg/injection, schedule: Q01DX009 (ip), vehicle: saline): 100 % of control
T/C [11]: 103 % of control
T/C [12]: 104 % of control
T/C [13]: 104 % of control

CCCCC(C)(CN(C)C)C(=O)/C=C/c1ccc(Cl)c(Cl)c1 (stereo not drawn)
T/C (dose: 6.25 mg/kg/injection, schedule: Q01DX009 (ip), vehicle: saline): 112 % of control
T/C (dose: 12.5 mg/kg/injection, schedule: Q01DX009 (ip), vehicle: saline): 120 % of control
T/C (dose: 25.0 mg/kg/injection, schedule: Q01DX009 (ip), vehicle: saline): 118 % of control

O=C(O)C(O)C(=O)O
T/C [12]: 95 % of control

COc1ccc(C=Nc2cccc3ccccc23)cc1
T/C (dose: 100.0 mg/kg/injection, schedule: Q01DX001 (ip), vehicle: saline sonified): 100 % of control
T/C (dose: 200.0 mg/kg/injection, schedule: Q01DX001 (ip), vehicle: saline sonified): 100 % of control
T/C (dose: 400.0 mg/kg/injection, schedule: Q01DX001 (ip), vehicle: saline sonified): 104 % of control

CCOC(=O)c1ccc(NC(N)=O)cc1
T/C [14]: 100 % of control
T/C [15]: 102 % of control
T/C [4]: 99 % of control

CC(C)CCCCc1c[nH]c(=O)[nH]c1=O
T/C [4]: 100 % of control
T/C [5]: 100 % of control
T/C [6]: 100 % of control

CCOC(=O)C1(C(=O)OCC)C2CC=CCC21 (stereo not drawn)
T/C [11]: 95 % of control
T/C [16]: 100 % of control
T/C [17]: 100 % of control

CC(C)C1(C(C)C)OCCO1
T/C (dose: 50.0 mg/kg/injection, schedule: Q04DX003 (ip), vehicle: saline): 87 % of control
T/C [12]: 108 % of control
T/C [13]: 100 % of control

CCCCC1(CC)COC(C)(Cc2ccccc2)OC1 (stereo not drawn)
T/C [11]: 100 % of control
T/C [12]: 104 % of control
T/C [16]: 100 % of control
T/C [13]: 100 % of control
T/C [17]: 90 % of control
T/C [18]: 104 % of control

CC(=O)NC1CC(=O)N(c2ccccc2)C1 (stereo not drawn)
T/C (dose: 87.5 mg/kg/injection, schedule: Q01DX009 (ip), vehicle: saline with Tween-80): 102 % of control
T/C (dose: 175.0 mg/kg/injection, schedule: Q01DX009 (ip), vehicle: saline with Tween-80): 111 % of control
T/C (dose: 350.0 mg/kg/injection, schedule: Q01DX009 (ip), vehicle: saline with Tween-80): 100 % of control

Cc1c(Cc2ccccc2)[n+](=O)c2ccccc2n1[O-]
T/C (dose: 100.0 mg/kg/injection, schedule: Q04DX003 (ip), vehicle: Klucel (hydroxypropylcellulose) (HPC)): 100 % of control
T/C [10]: 105 % of control

O=S(=O)(O)CCC(CO)(CO)CO
T/C [12]: 100 % of control
T/C [13]: 95 % of control
T/C [18]: 95 % of control

Cc1ccc(CNCC(=O)O)cc1
T/C [1]: 99 % of control
T/C [2]: 102 % of control
T/C [3]: 90 % of control

O=C(NCCNc1ccc(F)cc1)C12CC3CC(CC(C3)C1)C2
T/C [7]: 91 % of control
T/C [8]: 104 % of control
T/C [9]: 97 % of control

C=CCCN1CCCC1
T/C (dose: 12.5 mg/kg/injection, schedule: Q01DX009 (ip), vehicle: saline with Tween-80): 88 % of control
T/C (dose: 12.5 mg/kg/injection, schedule: Q04DX003 (ip), vehicle: saline with Tween-80): 100 % of control
T/C (dose: 25.0 mg/kg/injection, schedule: Q01DX009 (ip), vehicle: saline with Tween-80): 100 % of control
T/C [14]: 100 % of control
T/C [15]: 95 % of control
